Patent publication US12358960B2, “Selective targeting of ubiquitin- and ubiquitin-like E1-activating enzymes by structurally-stabilized peptides” (Dana-Farber Cancer Institute, Inc., priority 2019, dated 2025)
Entries after “also recorded” stand apart in the source; their conditions may differ. Bridge positions count the residues as written; N and C are the ends. Square brackets hold non-standard residues; d marks the D form. Peptide text beside a SMILES is read from it. R8 = C=CCCCCCC[C@@](C)(N)C(=O)O; S5 = C=CCCC[C@](C)(N)C(=O)O; Nle = CCCC[C@H](N)C(=O)O

How the values were obtained:
[1] = target: T1, Human E1 activating enzyme UBA1 (Homo sapiens, UniProt P22314); test: In vitro enzyme inhibition assay: E1-mediated ubiquitin thioester transfer to E2 (band shift, silver stain); assay type: biochemical; conditions: for effect of nonionic detergent on inhibitory activity against UBA1: 0.01% Triton X-100 in assay buffer
T1 sequence (P22314 1-1058): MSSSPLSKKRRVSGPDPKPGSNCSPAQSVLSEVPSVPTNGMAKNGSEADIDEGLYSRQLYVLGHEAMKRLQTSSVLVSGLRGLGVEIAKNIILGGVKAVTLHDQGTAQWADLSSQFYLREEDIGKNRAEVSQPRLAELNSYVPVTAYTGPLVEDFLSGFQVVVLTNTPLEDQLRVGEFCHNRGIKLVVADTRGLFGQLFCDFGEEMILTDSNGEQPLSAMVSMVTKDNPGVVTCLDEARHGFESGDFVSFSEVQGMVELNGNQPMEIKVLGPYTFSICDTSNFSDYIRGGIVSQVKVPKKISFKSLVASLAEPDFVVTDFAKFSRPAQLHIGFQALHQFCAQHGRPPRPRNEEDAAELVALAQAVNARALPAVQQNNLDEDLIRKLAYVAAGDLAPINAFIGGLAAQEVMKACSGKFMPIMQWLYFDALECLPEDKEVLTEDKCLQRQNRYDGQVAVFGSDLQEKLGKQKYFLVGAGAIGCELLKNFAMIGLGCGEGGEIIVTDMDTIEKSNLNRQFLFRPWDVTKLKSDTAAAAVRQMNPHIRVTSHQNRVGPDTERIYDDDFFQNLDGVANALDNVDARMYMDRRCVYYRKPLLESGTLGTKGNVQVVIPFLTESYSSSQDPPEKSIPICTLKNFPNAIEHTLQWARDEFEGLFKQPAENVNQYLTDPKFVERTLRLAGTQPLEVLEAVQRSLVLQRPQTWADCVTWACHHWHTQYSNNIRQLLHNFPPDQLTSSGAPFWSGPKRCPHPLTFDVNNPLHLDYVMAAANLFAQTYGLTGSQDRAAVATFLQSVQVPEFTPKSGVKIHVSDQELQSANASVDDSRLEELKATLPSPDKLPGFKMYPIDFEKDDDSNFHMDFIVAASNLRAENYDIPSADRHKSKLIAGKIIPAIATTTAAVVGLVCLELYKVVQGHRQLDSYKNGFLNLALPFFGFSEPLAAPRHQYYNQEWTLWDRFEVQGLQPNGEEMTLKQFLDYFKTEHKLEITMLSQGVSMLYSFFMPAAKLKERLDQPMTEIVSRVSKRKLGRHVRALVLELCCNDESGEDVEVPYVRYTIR
Protocol: In vitro Enzyme Inhibition Assays: To assess an E2 hA peptide's inhibition of an E1 enzyme, an in vitro enzyme inhibition assay can be used, for example. The in vitro enzyme inhibition assay measures an E2 hA peptide's ability to inhibit conjugation of ubiquitin to E2 by E1. Briefly, recombinant E1 (e.g., UBA1), recombinant E2 (e.g., UBE2A), ubiquitin, and Mg-ATP are combined in the presence of an E2 hA peptide or vehicle control (e.g., 1% DMSO) for a period of time (e.g., 30 minutes) at room temperature in a buffer containing, e.g., 50 mM NaCl, 50 mM HEPES pH 7.5. Control reaction includes no E1. Reactions are quenched by addition of SDS-containing loading dye and samples are resolved on a gel (e.g., a 4-12% Bis-Tris protein gel) under nonreducing conditions. Proteins on the gel are visualized via, e.g., silver stain. Conjugation of ubiquitin to E2 by E1 is monitored by conversion of free E2 (˜17 kDa) to E2˜ubiquitin conjugate (˜26 kDa).
Control reaction included no E1 enzyme. Reactions were quenched by addition of SDS-containing loading dye and samples were resolved on a 4-12% Bis-Tris protein gel under nonreducing conditions. Proteins were visualized via silver stain. Conjugation of ubiquitin to E2 by E1 was monitored by conversion of free E2 (17 kDa) to E2˜ubiquitin conjugate (26 kDa).
The ability of the peptides to inhibit E1-mediated thioester transfer to E2 was evaluated. Human E1 activating enzyme UBA1 (10 nM), UbcH5b E2 enzyme (150 nM), ubiquitin (1 μM), and Mg-ATP (20 μM) were combined in the presence of stapled peptide at a range of concentrations or vehicle control (1% DMSO) for 45 minutes at room temperature in buffer containing 50 mM NaCl, 50 mM HEPES, 1 mM TCEP pH 7.5. Reactions were quenched by addition of SDS-containing loading dye and samples were resolved on a 4-12% Bis-Tris protein gel under nonreducing conditions. Proteins were visualized via silver stain. Conjugation of ubiquitin to E2 by E1 was monitored by conversion of free E2 (17 kDa) to E2˜ubiquitin conjugate (26 kDa). Inhibition percentage was calculated from densitometry of silver stain images.
Streptavidin-biotin pull-down assays: For recombinant protein pull-downs, 10 pmol recombinant human UBA1 was incubated with 5 nmol C-terminally biotinylated SAH-UBE2A or DMSO vehicle control in a total volume of 1 mL binding buffer (50 mM NaCl, 20 mM HEPES, pH 7.4, 5 mM DTT) for 1.5 hours at 4° C. 30 μL of pre-equilibrated streptavidin agarose beads were then added and incubated for an additional 1.5 hours at 4° C. The beads were pelleted by centrifugation and washed three times with NP-40 buffer (20 mM HEPES, pH 7.4, 50 mM NaCl, 5 mM DTT, 0.5% [v/v] NP-40) before eluting the protein sample from the beads by heating at 70° C. for 10 min in 3×SDS loading buffer. Samples were subjected to electrophoresis and silver staining (Pierce 24612). For pull-down from cellular lysates, 0.75 mg HeLa cell lysate was incubated with 5 nmol C-terminally biotinylated SAH-UBE2A or DMSO vehicle control in a total volume of 1 mL binding buffer (50 mM NaCl, 20 mM HEPES, pH 7.4, 5 mM DTT) containing protease-phosphatase inhibitor cocktail for 2 hours at 4° C. 30 μL of pre-equilibrated streptavidin agarose beads (ThermoFisher 20357) were then added and incubated for an additional 1.5 hours at 4° C. The beads were pelleted by centrifugation and washed three times with NP-40 buffer (20 mM HEPES, pH 7.4, 50 mM NaCl, 5 mM DTT, 0.5% [v/v] NP-40) before eluting the protein sample from the beads by heating at 70° C. for 10 min in 3×SDS loading buffer. Proteins were separated by SDS-PAGE gel electrophoresis and detected by western blot against UBE1 (Abcam ab34711). In vitro Enzyme Inhibition Assays: Recombinant human E1 activating enzyme UBA1 (10 nM), E2 enzyme (150 nM), ubiquitin (1 μM), and Mg-ATP (20 μM) are combined in the presence of peptide or vehicle control (1% DMSO) for 45 minutes at room temperature in buffer containing 50 mM NaCl, 50 mM HEPES pH 7.5. Control reaction includes no E1 enzyme. […]

[2] = target: T2, UBA1 (Homo sapiens, UniProt P22314); test: UBA1~Ub thioester adduct formation (thioester transfer assay gel resolving UBA1 from UBA1~Ub); assay type: biochemical; conditions: all concentrations of peptide
T2 sequence (P22314 1-1058): T1 sequence (P22314 1-1058)

CCCC[C@H](NC(C)=O)C(=O)N[C@@H](CO)C(=O)N[C@H](C(=O)N1CCC[C@H]1C(=O)N[C@]1(C)CCCCCCC=CCCC[C@@](C)(C(=O)N[C@@H](Cc2ccccc2)C(=O)N[C@@H](CCCCN)C(=O)N[C@@H](CCCNC(=N)N)C(=O)N[C@@H](CC(C)C)C(=O)N[C@@H](CCC(N)=O)C(N)=O)NC(=O)[C@H](CCCNC(=N)N)NC(=O)[C@H](CCCC)NC(=O)[C@H](CC(C)C)NC(=O)[C@H](CCCNC(=N)N)NC(=O)[C@H](CCCNC(=N)N)NC(=O)[C@H](CCCNC(=N)N)NC1=O)[C@@H](C)O [SAH-UBE2A-11, BSTPX1RRRLBRX2FKRLQ] (Ac-[Nle]STP[R8]RRRL[Nle]R[S5]FKRLQ-NH2; staple 5-12)
effect of nonionic detergent on inhibitory activity against UBA1 [1]: not affected at all by the presence of non-ionic detergent | effect of nonionic detergent on inhibitory activity against UBA1 ([1]; listed as SAH-UBE2A): no effect on the inhibitory activity of SAH-UBE2A | inhibition of E1-mediated thioester transfer to a variety of human E2 enzymes ([1]; panel of human E2 enzymes (UBE2A, UBE2B, UBE2C, UBE2D1-4 etc.)): inhibited E1-mediated thioester transfer to all human E2 enzymes tested; also recorded: inhibits E1 thioester transfer activity | inhibition of E1-mediated thioester transfer to E2, dose response ([1]; range of peptide concentrations, UbcH5b E2 enzyme, 45 minutes): inhibited E1-mediated thioester transfer to E2 in a dose-dependent manner; also recorded: most potent activity; also recorded: dose-dependently inhibit E1-mediated thioester transfer to E2 | ability of UBA1 to form covalent UBA1~Ub thioester adduct [2]: no effect on the ability of UBA1 to covalently charge itself with ubiquitin | ability of UBA1 to form covalent UBA1~Ub thioester adduct ([2]; listed as SAH-UBE2A): no effect on the ability of UBA1 to form a covalent UBA1˜Ub thioester adduct
